What was measured:
[1] = tested on: alpha-1-acid glycoprotein (AAG); test: Binding site study with AAG, replacement of marker quinaldine red (fluorescence); parameters: species or system human
From the text: Orosomucoid has seven binding sites in its molecule, but there is only one site where the drugs bind. A very good fluorescent marker for binding site study in the case of AAG is quinalidine red (QR).
We used a 500 nm excitation wavelength. In these conditions, the maximum emission spectra were located near 600 nm. We increased the molar ratio of the reactants from 1:1:0 to 1:1:10. The intensity of fluorescence decreases during the addition of successive portions of the analyzed compounds.
Binding site studies were conducted using fluorescence measurements. Spectra were recorded on Cary Eclipse 500 spectrophotometer (Agilent, Santa Clara, CA, USA) at room temperature with a 10 mm path length. HSA and AAG solutions were prepared in phosphate buffer, giving concentrations equal to 1 × 10^−6 M. The concentrations of dansylated-L-glycine (DanG), dansylated-L-phenylalanine (DanF), and quinaldine red (QR) were 1 × 10^−3 M. The densylated amino acids and QR solutions were prepared in ethanol. For the HSA-dansylated amino acids studies, the excitation wavelength was equal to 350 nm, while for the AAG-QR system, it was 500 nm, respectively. Then, 3 mL of protein was mixed with 3 µL of marker solution, giving a molar ratio of 1 to 1. Next, successive portions of the analyzed compounds were added to the mixtures prepared in this way, obtaining the appropriate protein-to-compound molar ratios, amounting to 1:0, 1:0.5, 1:1, 1:2, 1:3, 1:4, 1:5, and 1:10 for the HSA-densylated amino acids systems, and 1:0, 1:0.5, 1:1, 1:2, 1:3, 1:4, 1:6, 1:8, and 1:10 for the AAG-QR systems.

[2] = molecular target: human serum albumin (HSA) (Homo sapiens, UniProt P02768); test: Circular dichroism spectroscopy of HSA, secondary structure; parameters: purchased Sigma-Aldrich Chemie GmbH; conditions: for Change in % α-helix, (1:5) minus (1:0) / reduction in the percentage of α-helix: HSA
Description: When the small molecules interact with plasma proteins, changes in circular dichroism spectra are observed. Specific secondary structures such as α-helix or β-sheet have a characteristic band on the spectrum. For the first structure, two negative peaks near 209 and 220 nm are observed, while for the β-sheet, the negative band around 215 nm is present.
Circular dichroism (CD) spectra were measured on the Jasco J-1500 magnetic circular dichroism spectrometer (JASCO International CO., Tokyo, Japan) at room temperature with a 10 mm path length. […] The spectra were measured in the range of 205–250 nm at a scan rate speed of 50 nm/min, with a response time of 1 s. […] They were respectively added into 3 mL of protein solution successive portions of the solutions of the analyzed compounds. The analysis of the obtained results was performed using the CD Multivariate Calibration Creation and CD Multivariate SSE programs (JASCO International CO., Tokyo, Japan). Protein concentrations were converted here for mean residue molar concentrations.

[3] = AAG:marker:compound molar ratio 1:1:0.5
[4] = AAG:marker:compound molar ratio 1:1:1
[5] = AAG:marker:compound molar ratio 1:1:2
[6] = AAG:marker:compound molar ratio 1:1:3
[7] = AAG:marker:compound molar ratio 1:1:4
[8] = AAG:marker:compound molar ratio 1:1:6
[9] = AAG:marker:compound molar ratio 1:1:8
[10] = AAG:marker:compound molar ratio 1:1:10

Sequence of human serum albumin (HSA) (P02768 25-609): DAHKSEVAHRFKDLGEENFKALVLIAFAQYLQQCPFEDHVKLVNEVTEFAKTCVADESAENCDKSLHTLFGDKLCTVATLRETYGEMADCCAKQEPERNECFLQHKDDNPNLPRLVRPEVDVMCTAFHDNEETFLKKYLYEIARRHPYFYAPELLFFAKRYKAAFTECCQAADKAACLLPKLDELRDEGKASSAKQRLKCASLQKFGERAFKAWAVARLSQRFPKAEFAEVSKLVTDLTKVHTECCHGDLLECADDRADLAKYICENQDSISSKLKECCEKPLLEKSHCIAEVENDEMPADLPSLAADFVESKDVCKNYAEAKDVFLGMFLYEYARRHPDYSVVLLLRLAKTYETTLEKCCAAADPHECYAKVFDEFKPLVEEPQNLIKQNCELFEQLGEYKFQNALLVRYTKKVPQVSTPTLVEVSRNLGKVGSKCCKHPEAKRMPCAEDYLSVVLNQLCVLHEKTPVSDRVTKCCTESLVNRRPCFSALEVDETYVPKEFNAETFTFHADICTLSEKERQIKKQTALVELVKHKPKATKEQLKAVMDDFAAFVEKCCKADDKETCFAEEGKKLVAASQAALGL

| Structure (SMILES) | percentage of the replacement of QR [1, 3] [%] | percentage of the replacement of QR [1, 4] [%] | percentage of the replacement of QR [1, 5] [%] | percentage of the replacement of QR [1, 6] [%] | percentage of the replacement of QR [1, 7] [%] | percentage of the replacement of QR [1, 8] [%] | percentage of the replacement of QR [1, 9] [%] | percentage of the replacement of QR [1, 10] [%] | Change in % α-helix, (1:5) minus (1:0) [2] [%] | % Other ([2]; HSA:compound molar ratio 1:0.5) [%] | % α-Helix ([2]; HSA:compound molar ratio 1:0.5) [%] | % β-Sheet ([2]; HSA:compound molar ratio 1:0.5) [%] | % β-Turn ([2]; HSA:compound molar ratio 1:0.5) [%] | % Other ([2]; HSA:compound molar ratio 1:1) [%] | % α-Helix ([2]; HSA:compound molar ratio 1:1) [%] | % β-Sheet ([2]; HSA:compound molar ratio 1:1) [%] | % β-Turn ([2]; HSA:compound molar ratio 1:1) [%] | % Other ([2]; HSA:compound molar ratio 1:2) [%] | % α-Helix ([2]; HSA:compound molar ratio 1:2) [%] | % β-Sheet ([2]; HSA:compound molar ratio 1:2) [%] | further results |
| --- | --- | --- | --- | --- | --- | --- | --- | --- | --- | --- | --- | --- | --- | --- | --- | --- | --- | --- | --- | --- | --- |
| CCCCn1c(C)c2c(OCC(=O)N/N=C/c3ccccc3)nn(C)c(=O)c2c1C [Compound 5a, N-[(Z/E)-benzylideneamino]-2-(6-butyl-3,5,7-trimethyl-4-oxo-pyrrolo[3,4-d]pyridazin-1-yl)oxy-acetamide] | 23.7 | 35.5 | 48.1 | 55.0 | 58.8 | 65.6 | 69.5 | 72.5 | −2.0 | 20.7 | 67.3 | 2.8 | 9.2 | 20.9 | 66.9 | 2.8 | 9.3 | 21.5 | 66.3 | 2.7 | % β-Turn ([2]; HSA:compound molar ratio 1:2): 9.4%; % Other ([2]; HSA:compound molar ratio 1:3): 21.6%; % α-Helix ([2]; HSA:compound molar ratio 1:3): 66.2%; % β-Sheet ([2]; HSA:compound molar ratio 1:3): 2.8%; % β-Turn ([2]; HSA:compound molar ratio 1:3): 9.5%; % Other ([2]; HSA:compound molar ratio 1:5): 20.3%; % α-Helix ([2]; HSA:compound molar ratio 1:5): 66.1%; % β-Sheet ([2]; HSA:compound molar ratio 1:5): 4.3%; % β-Turn ([2]; HSA:compound molar ratio 1:5): 9.3% |
| Cc1c2c(OCC(=O)N/N=C/c3ccccc3)nn(C)c(=O)c2c(C)n1-c1cccc(Cl)c1 [Compound 5c, N-[(Z/E)-benzylideneamino]-2-[6-(3-chlorophenyl)-3,5,7-trimethyl-4-oxo-pyrrolo[3,4-d]pyridazin-1-yl]oxyacetamide] | 31.7 | 39.7 | 52.4 | 54.0 | 54.8 | 55.6 | 55.6 | 55.6 | −1.6 | 19.6 | 68.4 | 2.9 | 9.1 | 20.3 | 68.0 | 2.5 | 9.2 | 19.8 | 67.8 | 3.2 | reduction in the percentage of α-helix [2]: 1.6%; % β-Turn ([2]; HSA:compound molar ratio 1:2): 9.2%; % Other ([2]; HSA:compound molar ratio 1:3): 19.7%; % α-Helix ([2]; HSA:compound molar ratio 1:3): 67.8%; % β-Sheet ([2]; HSA:compound molar ratio 1:3): 3.3%; % β-Turn ([2]; HSA:compound molar ratio 1:3): 9.1%; % Other ([2]; HSA:compound molar ratio 1:5): 20.0%; % α-Helix ([2]; HSA:compound molar ratio 1:5): 67.3%; % β-Sheet ([2]; HSA:compound molar ratio 1:5): 3.5%; % β-Turn ([2]; HSA:compound molar ratio 1:5): 9.2% |
| Cc1c2c(OCC(=O)N/N=C/c3ccccc3)nn(C)c(=O)c2c(C)n1-c1ccccc1 [Compound 5b, N-[(Z/E)-benzylideneamino]-2-(3,5,7-trimethyl-4-oxo-6-phenyl-pyrrolo[3,4-d]pyridazin-1-yl)oxy-acetamide] | 17.2 | 29.1 | 40.3 | 47.0 | 52.2 | 55.2 | 56.7 | 58.2 | −2.4 | 20.9 | 67.7 | 2.2 | 9.3 | 21.0 | 67.1 | 2.5 | 9.3 | 20.6 | 66.9 | 3.2 | reduction in the percentage of α-helix [2]: 2.4%; % β-Turn ([2]; HSA:compound molar ratio 1:2): 9.3%; % Other ([2]; HSA:compound molar ratio 1:3): 20.5%; % α-Helix ([2]; HSA:compound molar ratio 1:3): 66.6%; % β-Sheet ([2]; HSA:compound molar ratio 1:3): 3.7%; % β-Turn ([2]; HSA:compound molar ratio 1:3): 9.3%; % Other ([2]; HSA:compound molar ratio 1:5): 20.2%; % α-Helix ([2]; HSA:compound molar ratio 1:5): 66.3%; % β-Sheet ([2]; HSA:compound molar ratio 1:5): 4.3%; % β-Turn ([2]; HSA:compound molar ratio 1:5): 9.2% |

— PMC10383271
